One block for each compound: values may come before it.
Test: photoluminescence quantum yield (fraction); solvent given as SMILES

photoluminescence quantum yield (in CCO): 0.44
SMILES: Nc1cc2oc3cc(O)c(F)cc3c(=O)c2cc1F

photoluminescence quantum yield (in CO): 0.87
SMILES: COC(=O)COc1ccc(/C=C/C2=[N+]3C(=C(c4ccc(N5CCCCC5)cc4)c4c(C)cc(C)n4[B-]3(F)F)C(C)=C2)cc1

photoluminescence quantum yield (in CC#N): 0.75
photoluminescence quantum yield (in CS(C)=O): 0.94
SMILES: c1ccc(-c2nc(-c3ccc(-c4nc(-c5ccccc5)c(-c5ccccc5)[nH]4)cc3)[nH]c2-c2ccccc2)cc1

photoluminescence quantum yield (in CCO): 0.84
SMILES: Cc1c(COC(=O)Cc2cccc3ccccc23)n2c(OCC(=O)Cc3cccc4ccccc34)c(C)c(=O)n2c1=O

photoluminescence quantum yield (in ClCCl): 0.22
SMILES: Cc1cc(-c2cccc3ccccc23)cc(C)[o+]1

photoluminescence quantum yield (in CO): 0.27
SMILES: COc1ccc(-c2nc(-c3ccccc3OC)[nH]c2-c2ccc(OC)cc2)cc1

photoluminescence quantum yield (in C1COCCO1): 0.62
photoluminescence quantum yield (in CC#N): 0.43
photoluminescence quantum yield (in CCCCOCCCC): 0.41
photoluminescence quantum yield (in CCOC(C)=O): 0.3
SMILES: c1ccc(Nc2nc(Nc3ccccc3)nc(Nc3ccc4cc5ccccc5cc4c3)n2)cc1

photoluminescence quantum yield (in ClCCl): 0.21
SMILES: COc1ccc(-c2ccc(C(=O)NC(C)(C)C)c3c2ccc2c4ccccc4c4ccccc4c23)cc1

photoluminescence quantum yield (in CCO): 0.36
SMILES: C#Cc1ccc2cc(/C=C/C(=O)OCC)c(=O)oc2c1

photoluminescence quantum yield (in CS(C)=O): 0.1
SMILES: C[N+]1=C(/C=C/C=C2/N(CCCS(=O)(=O)[O-])c3ccccc3C2(C)C)C(C)(C)c2ccccc21

photoluminescence quantum yield (in CC#N): 0.65
photoluminescence quantum yield (in ClCCl): 0.85
SMILES: Cn1c(=O)cc(C(=O)c2ccccc2)c2sc(-c3ccc(OC(F)(F)F)cc3)cc21

photoluminescence quantum yield (in CC#N): 0.76
SMILES: Cc1ccc(-c2ccc(/C=C/c3ccc(Cl)cc3)cn2)nc1

photoluminescence quantum yield (in C1CCCCC1): 0.03
photoluminescence quantum yield (in CO): 0.005
SMILES: C/C(=C\c1ccc(Cl)cc1)c1nc2ccccc2s1

photoluminescence quantum yield (in ClC(Cl)Cl): 0.37
SMILES: F[B-]1(F)OC(c2ccc(C(F)(F)F)cc2)=Cc2ccc3ccccc3[n+]21

photoluminescence quantum yield (in ClCCl): 0.79
SMILES: c1cnc(-c2c3ccccc3c(-c3ncccn3)c3ccccc23)nc1

photoluminescence quantum yield (in ClCCl): 0.0575
SMILES: COc1cc(OC)cc(-c2ccc(C3=CC(c4ccccc4)=C(c4ccccc4)C3)cc2)c1

photoluminescence quantum yield (in ClCCl): 0.02
SMILES: c1ccc2c(c1)c1ccccc1c1ccccc21

photoluminescence quantum yield (in CCO): 0.003
SMILES: CN(C)c1ccc(-c2cc[n+](C)cc2)s1

photoluminescence quantum yield (in CC1CCCCC1): 0.74
SMILES: CC(C)(C)c1ccc2cc3c4cccc5cccc(c6cc(C(C)(C)C)cc(c2c1)c63)c54

photoluminescence quantum yield (in CCCO): 0.57
SMILES: CCOC(=O)c1ccc2c(c1)[nH]c1c3ccc(C(=O)OCC)cc3[nH]c21

photoluminescence quantum yield (in ClC(Cl)Cl): 0.055
SMILES: FC(F)(F)c1ccc2oc3nc4oc5ccc(N6c7ccccc7Oc7ccccc76)cc5c4cc3c2c1

photoluminescence quantum yield (in C1CCCCC1): 0.92
photoluminescence quantum yield (in CC#N): 0.65
SMILES: C[Si](C)(C)[Si](C)(C)c1c2ccccc2cc2ccccc12

photoluminescence quantum yield (in C1CCCCC1): 0.057
photoluminescence quantum yield (in CC#N): 0.72
photoluminescence quantum yield (in CO): 0.067
photoluminescence quantum yield (in ClC(Cl)Cl): 0.12
SMILES: CN(C)c1ccc2nc(-c3ccc(/C=N/c4ccccc4)cc3)sc2c1

photoluminescence quantum yield (in CO): 0.64
SMILES: COC(=O)c1cc(OC)ccc1OC

photoluminescence quantum yield (in CCO): 0.06
photoluminescence quantum yield (in CO): 0.07
photoluminescence quantum yield (in CS(C)=O): 0.24
SMILES: CN1/C(=C/C=C(/C=C/c2sc3ccccc3[n+]2C)c2ccccc2)Sc2ccccc21

photoluminescence quantum yield (in C1CCCCC1): 0.034
photoluminescence quantum yield (in CC#N): 0.0018
photoluminescence quantum yield (in CCO): 0
SMILES: COc1ccc2c(c1)C(=O)c1ccccc1-2

photoluminescence quantum yield (in ClCCl): 0
SMILES: Cc1ccc(/C=C/c2nc(-c3ccc([N+](=O)[O-])cc3)[nH]c2/C=C/c2ccc(C)cc2)cc1

photoluminescence quantum yield (in ClCCl): 0.24
SMILES: c1ccc(-p2c3ccccc3c3sc4ccccc4c32)cc1 (stereo not given)

photoluminescence quantum yield (in CCCCCC): 0.348
SMILES: COC(=O)c1c(C(=O)OC)c2ccc(C)nn2c1C

photoluminescence quantum yield (in C1COCCO1): 0.159
SMILES: COC(=O)c1ccc(/C=C2\N=C(c3ccccc3)NC2=O)cc1

The next lines start with the compound.

SMILES: COc1ccc(/C=C/c2nc(N3CCOCC3)c3c([n+]2[O-])CCCC3)cc1
photoluminescence quantum yield (in ClCCl): 0.12

SMILES: CC1(C)C(/C=C/C=C/C=C/C=C2/N(CCCCCC(=O)O)c3ccc(S(=O)(=O)[O-])cc3C2(C)C)=[N+](CCCCCC(=O)O)c2ccc(S(=O)(=O)[O-])cc21
photoluminescence quantum yield (in CO): 0.62
photoluminescence quantum yield (in O): 0.28

SMILES: c1ccc(N(c2ccccc2)c2ccc(-c3ccc4c(c3)C3(c5cc(-c6ccc(N(c7ccccc7)c7ccccc7)cc6)ccc5S4)c4ccccc4-c4ccccc43)cc2)cc1
photoluminescence quantum yield (in ClCCl): 0.66

SMILES: C1=C2C3=C(C4=[N+]2[B-]2(Oc5ccccc54)Oc4ccccc4-c4c5c(c1n42)C1CCC5CC1)C1CCC3CC1 (stereo not given)
photoluminescence quantum yield (in ClCCl): 0.99

SMILES: CCCCN(CCCC)c1ccc(C#Cc2cc(C#Cc3ccc(C#N)cc3)c(C#Cc3ccc(N(CCCC)CCCC)cc3)cc2C#Cc2ccc(C#N)cc2)cc1
photoluminescence quantum yield (in ClCCl): 0.25

SMILES: COCCC1=Cc2nc1ccc1[nH]c(cc1CCOC)c1nc(ccc3[nH]c2cc3CCO)C(CCOC)=C1
photoluminescence quantum yield (in Cc1ccccc1): 0.32

SMILES: CCC1(CC)c2ccccc2-c2c1c1c(c3c2C(CC)(CC)c2cc(B(c4c(C)cc(C)cc4C)c4c(C)cc(C)cc4C)ccc2-3)C(CC)(CC)c2cc(B(c3c(C)cc(C)cc3C)c3c(C)cc(C)cc3C)ccc2-1
photoluminescence quantum yield (in C1CCOC1): 0.4

SMILES: CCCC1(CCC)c2cc(-c3ccc4c(c3)C(CCC)(CCC)c3cc(-c5ccc6c(c5)C(CCC)(CCC)c5cc(C(C)(C)CC)ccc5-6)ccc3-4)ccc2-c2ccc(-c3ccc4c(c3)C(CCC)(CCC)c3cc(C(C)(C)CC)ccc3-4)cc21
photoluminescence quantum yield (in C1CCCCC1): 0.98

SMILES: C(=C(c1ccccc1)c1ccccc1)c1ccc(-c2cc(-c3ccc(C=C(c4ccccc4)c4ccccc4)cc3)cc(-c3ccc(C=C(c4ccccc4)c4ccccc4)cc3)c2)cc1
photoluminescence quantum yield (in C1CCOC1): 0.0045

SMILES: Cc1cc(C)c(B(c2c(C)cc(C)cc2C)N2c3ccccc3C(C)(C)c3ccccc32)c(C)c1
photoluminescence quantum yield (in C1CCCCC1): 0.931
photoluminescence quantum yield (in Cc1ccccc1): 0.802
photoluminescence quantum yield (in ClCCl): 0.9

SMILES: CCCc1ccc(C#Cc2cc(C#Cc3ccc(N(C)C)cc3)c3ccc4c(C#Cc5ccc(N(C)C)cc5)cc(C#Cc5ccc(N(C)C)cc5)c5ccc2c3c54)cc1
photoluminescence quantum yield (in ClCCl): 0.47

SMILES: C=C(C)C(CN1C(=O)c2cccc3c2c(cc2oc(C)nc23)C1=O)OO (stereo not given)
photoluminescence quantum yield (in CCO): 0.096

SMILES: Oc1ccc2ccc(C3(O)C4CC5CC(C4)CC3C5)cc2c1 (stereo not given)
photoluminescence quantum yield (in CC#N): 0.3

SMILES: N#Cc1ccc(-n2c(-c3ccc(-c4ccc(-c5nc6c7ccccc7c7ccccc7c6n5-c5ccc(C#N)c6ccccc56)cc4)cc3)nc3c4ccccc4c4ccccc4c32)c2ccccc12
photoluminescence quantum yield (in ClCCl): 0.85

SMILES: N#Cc1nc2cnc(N)nc2n1Cc1ccccc1
photoluminescence quantum yield (in C1COCCO1): 0.34
photoluminescence quantum yield (in CC#N): 0.31
photoluminescence quantum yield (in CO): 0.64
photoluminescence quantum yield (in ClCCl): 0.2
photoluminescence quantum yield (in O): 0.88

SMILES: CCCCCCC(CCCCCC)N1C(=O)c2cccc3c(-c4ccc(-c5ccc(OC)cc5)cc4)ccc(c23)C1=O
photoluminescence quantum yield (in CCCCCC): 0.5
photoluminescence quantum yield (in CCCCCCCCCCCCCC): 0.5
photoluminescence quantum yield (in CCCCCCCCCCCO): 0.56
photoluminescence quantum yield (in CCCCO): 0.16
photoluminescence quantum yield (in CN(C)C=O): 0.15
photoluminescence quantum yield (in Cc1ccccc1): 0.4
photoluminescence quantum yield (in ClC(Cl)Cl): 0.67

SMILES: Nc1cccc2cccc(N)c12
photoluminescence quantum yield (in CC#N): 0.1
photoluminescence quantum yield (in CO): 0.09
photoluminescence quantum yield (in CS(C)=O): 0.3
photoluminescence quantum yield (in Cc1ccccc1): 0.13

SMILES: COc1ccc(C2=C(c3ccc(OC)cc3)C(c3ccccc3)=[N+]3C2=Nc2c(-c4ccc(OC)cc4)c(-c4ccc(OC)cc4)c(-c4ccccc4)n2[B-]3(F)F)cc1
photoluminescence quantum yield (in Cc1ccccc1): 0.01

SMILES: CCCCCCN(CCCCCC)c1ccc(C#Cc2ccc(N(CCCCCC)CCCCCC)cc2)cc1
photoluminescence quantum yield (in CO): 0.0001

SMILES: COc1ccc2c(c1)c1ccccc1n2-c1nc2ccccc2nc1-n1c2ccccc2c2cc(OC)ccc21
photoluminescence quantum yield (in Cc1ccccc1): 0.13

From the Deep4Chem optical property database
